Measured values taken from ChEMBL document CHEMBL3885881, “DrugMatrix”.

Species: Rattus norvegicus
Experiment: DrugMatrix - Regimen: Daily Repeat
Assay type: toxicity, organism-based, Sprague-Dawley
Parameters: regimen Daily Repeat, gender Male, age 6-8 weeks
Conditions: in vivo, po, route oral GAVAGE, vehicle 100 % WATER; for ABSOLUTE BASOPHIL / ABSOLUTE EOSINOPHIL / ABSOLUTE LYMPHOCYTE / ABSOLUTE MONOCYTE / ABSOLUTE SEGMENTED NEUTROPHIL / BASOPHIL / EOSINOPHIL / ERYTHROCYTE COUNT / HEMATOCRIT / HEMOGLOBIN / LEUKOCYTE COUNT / LYMPHOCYTE / MEAN CORPUSCULAR HEMOGLOBIN / MEAN CORPUSCULAR HEMOGLOBIN CONCENTRATION / MEAN CORPUSCULAR VOLUME / MONOCYTE / NEUTROPHIL / NUCLEATED RED BLOOD CELLS / PLATELET COUNT: tissue Blood; for ALANINE AMINOTRANSFERASE / ALBUMIN / ALKALINE PHOSPHATASE / ASPARTATE AMINOTRANSFERASE / BLOOD UREA NITROGEN / CARBON DIOXIDE / CHLORIDE / CHOLESTEROL / CREATINE PHOSPHOKINASE / CREATININE / GLUCOSE / LACTATE DEHYDROGENASE / LIPASE / PHOSPHORUS / POTASSIUM / SODIUM / TOTAL BILIRUBIN / TOTAL PROTEIN / URIC ACID: tissue Plasma
[1] = 300 mg/kg, 72 h, dose level Low, time 3 day
[2] = 300 mg/kg, 120 h, dose level Low, time 5 day
[3] = 1100 mg/kg, 72 h, dose level High, time 3 day
[4] = 1100 mg/kg, 120 h, dose level High, time 5 day

O=C(O)CCNC(=O)c1ccc(/N=N/c2ccc(O)c(C(=O)O)c2)cc1 [BALSALAZIDE]
ABSOLUTE BASOPHIL [1]: 0 CELLS/uL
ABSOLUTE EOSINOPHIL [1]: 0 CELLS/uL
ABSOLUTE LYMPHOCYTE [1]: 11801 CELLS/uL
ABSOLUTE MONOCYTE [1]: 66 CELLS/uL
ABSOLUTE SEGMENTED NEUTROPHIL [1]: 833 CELLS/uL
BASOPHIL [1]: 0%
EOSINOPHIL [1]: 0%
ERYTHROCYTE COUNT [1]: 5.38 x10E6/uL
HEMATOCRIT [1]: 33.73%
HEMOGLOBIN [1]: 13.5 G/DL
LEUKOCYTE COUNT [1]: 12.7 x10E3/uL
LYMPHOCYTE [1]: 93.33%
MEAN CORPUSCULAR HEMOGLOBIN [1]: 25.13 pg
MEAN CORPUSCULAR HEMOGLOBIN CONCENTRATION [1]: 40.03 G/DL
MEAN CORPUSCULAR VOLUME [1]: 62.7 fL
MONOCYTE [1]: 0.33%
NEUTROPHIL [1]: 6.33%
NUCLEATED RED BLOOD CELLS [1]: 0 /100WBC
PLATELET COUNT [1]: 922 x10E3/uL
ALANINE AMINOTRANSFERASE [1]: 56.33 u/L
ALBUMIN [1]: 4.23 G/DL
ALKALINE PHOSPHATASE [1]: 481.33 u/L
ASPARTATE AMINOTRANSFERASE [1]: 94 u/L
BLOOD UREA NITROGEN [1]: 17.33 mg/dL
CARBON DIOXIDE [1]: 29 mmol/L
CHLORIDE [1]: 103.67 MEQ/L
CHOLESTEROL [1]: 73.33 mg/dL
CREATINE PHOSPHOKINASE [1]: 306.67 u/L
CREATININE [1]: 0.22 mg/dL
GLUCOSE [1]: 159.33 mg/dL
LACTATE DEHYDROGENASE [1]: 328 u/L
LIPASE [1]: 8 u/L
PHOSPHORUS [1]: 13.87 mg/dL
POTASSIUM [1]: 6.3 MEQ/L
SODIUM [1]: 144.33 MEQ/L
TOTAL BILIRUBIN [1]: 0.2 mg/dL
TOTAL PROTEIN [1]: 5.93 G/DL
URIC ACID [1]: 1.5 mg/dL
ABSOLUTE BASOPHIL [2]: 0 CELLS/uL
ABSOLUTE EOSINOPHIL [2]: 53.33 CELLS/uL
ABSOLUTE LYMPHOCYTE [2]: 8092.67 CELLS/uL
ABSOLUTE MONOCYTE [2]: 26.67 CELLS/uL
ABSOLUTE SEGMENTED NEUTROPHIL [2]: 694 CELLS/uL
BASOPHIL [2]: 0%
EOSINOPHIL [2]: 0.67%
ERYTHROCYTE COUNT [2]: 5.99 x10E6/uL
HEMATOCRIT [2]: 38.2%
HEMOGLOBIN [2]: 14.6 G/DL
LEUKOCYTE COUNT [2]: 8.87 x10E3/uL
LYMPHOCYTE [2]: 91%
MEAN CORPUSCULAR HEMOGLOBIN [2]: 24.43 pg
MEAN CORPUSCULAR HEMOGLOBIN CONCENTRATION [2]: 38.2 G/DL
MEAN CORPUSCULAR VOLUME [2]: 63.9 fL
MONOCYTE [2]: 0.33%
NEUTROPHIL [2]: 8%
NUCLEATED RED BLOOD CELLS [2]: 0 /100WBC
PLATELET COUNT [2]: 965 x10E3/uL
ALANINE AMINOTRANSFERASE [2]: 61.67 u/L
ALBUMIN [2]: 4.17 G/DL
ALKALINE PHOSPHATASE [2]: 384.67 u/L
ASPARTATE AMINOTRANSFERASE [2]: 83.67 u/L
BLOOD UREA NITROGEN [2]: 17.67 mg/dL
CARBON DIOXIDE [2]: 28.67 mmol/L
CHLORIDE [2]: 102 MEQ/L
CHOLESTEROL [2]: 63.33 mg/dL
CREATINE PHOSPHOKINASE [2]: 238.33 u/L
CREATININE [2]: 0.22 mg/dL
GLUCOSE [2]: 182.67 mg/dL
LACTATE DEHYDROGENASE [2]: 142.67 u/L
LIPASE [2]: 12.33 u/L
PHOSPHORUS [2]: 14.5 mg/dL
POTASSIUM [2]: 6.43 MEQ/L
SODIUM [2]: 146.73 MEQ/L
TOTAL BILIRUBIN [2]: 0.2 mg/dL
TOTAL PROTEIN [2]: 6.07 G/DL
URIC ACID [2]: 2.17 mg/dL
ABSOLUTE BASOPHIL [3]: 0 CELLS/uL
ABSOLUTE EOSINOPHIL [3]: 0 CELLS/uL
ABSOLUTE LYMPHOCYTE [3]: 7596 CELLS/uL
ABSOLUTE MONOCYTE [3]: 55 CELLS/uL
ABSOLUTE SEGMENTED NEUTROPHIL [3]: 682.33 CELLS/uL
BASOPHIL [3]: 0%
EOSINOPHIL [3]: 0%
ERYTHROCYTE COUNT [3]: 5.29 x10E6/uL
HEMATOCRIT [3]: 33.57%
HEMOGLOBIN [3]: 13.27 G/DL
LEUKOCYTE COUNT [3]: 8.33 x10E3/uL
LYMPHOCYTE [3]: 91.33%
MEAN CORPUSCULAR HEMOGLOBIN [3]: 25.13 pg
MEAN CORPUSCULAR HEMOGLOBIN CONCENTRATION [3]: 39.5 G/DL
MEAN CORPUSCULAR VOLUME [3]: 63.47 fL
MONOCYTE [3]: 0.67%
NEUTROPHIL [3]: 8%
NUCLEATED RED BLOOD CELLS [3]: 0 /100WBC
PLATELET COUNT [3]: 833.67 x10E3/uL
ALANINE AMINOTRANSFERASE [3]: 62.67 u/L
ALBUMIN [3]: 4.33 G/DL
ALKALINE PHOSPHATASE [3]: 344.33 u/L
ASPARTATE AMINOTRANSFERASE [3]: 98.67 u/L
BLOOD UREA NITROGEN [3]: 15 mg/dL
CARBON DIOXIDE [3]: 32.67 mmol/L
CHLORIDE [3]: 101.67 MEQ/L
CHOLESTEROL [3]: 84.33 mg/dL
CREATINE PHOSPHOKINASE [3]: 333 u/L
CREATININE [3]: 0.49 mg/dL
GLUCOSE [3]: 160.33 mg/dL
LACTATE DEHYDROGENASE [3]: 159 u/L
LIPASE [3]: 12 u/L
PHOSPHORUS [3]: 11.9 mg/dL
POTASSIUM [3]: 5.97 MEQ/L
SODIUM [3]: 145.53 MEQ/L
TOTAL BILIRUBIN [3]: 0.27 mg/dL
TOTAL PROTEIN [3]: 6.1 G/DL
URIC ACID [3]: 0.67 mg/dL
ABSOLUTE BASOPHIL [4]: 0 CELLS/uL
ABSOLUTE EOSINOPHIL [4]: 0 CELLS/uL
ABSOLUTE LYMPHOCYTE [4]: 12609 CELLS/uL
ABSOLUTE MONOCYTE [4]: 37.67 CELLS/uL
ABSOLUTE SEGMENTED NEUTROPHIL [4]: 1253.33 CELLS/uL
BASOPHIL [4]: 0%
EOSINOPHIL [4]: 0%
ERYTHROCYTE COUNT [4]: 5.68 x10E6/uL
HEMATOCRIT [4]: 35.73%
HEMOGLOBIN [4]: 14.1 G/DL
LEUKOCYTE COUNT [4]: 13.9 x10E3/uL
LYMPHOCYTE [4]: 91.33%
MEAN CORPUSCULAR HEMOGLOBIN [4]: 24.87 pg
MEAN CORPUSCULAR HEMOGLOBIN CONCENTRATION [4]: 39.47 G/DL
MEAN CORPUSCULAR VOLUME [4]: 62.93 fL
MONOCYTE [4]: 0.33%
NEUTROPHIL [4]: 8.33%
NUCLEATED RED BLOOD CELLS [4]: 0 /100WBC
PLATELET COUNT [4]: 1338 x10E3/uL
ALANINE AMINOTRANSFERASE [4]: 55.33 u/L
ALBUMIN [4]: 4 G/DL
ALKALINE PHOSPHATASE [4]: 346.67 u/L
ASPARTATE AMINOTRANSFERASE [4]: 106 u/L
BLOOD UREA NITROGEN [4]: 17.67 mg/dL
CARBON DIOXIDE [4]: 27 mmol/L
CHLORIDE [4]: 104 MEQ/L
CHOLESTEROL [4]: 55.33 mg/dL
CREATINE PHOSPHOKINASE [4]: 414 u/L
CREATININE [4]: 0.14 mg/dL
GLUCOSE [4]: 163.67 mg/dL
LACTATE DEHYDROGENASE [4]: 452.33 u/L
LIPASE [4]: 10 u/L
PHOSPHORUS [4]: 12.77 mg/dL
POTASSIUM [4]: 6.29 MEQ/L
SODIUM [4]: 144.53 MEQ/L
TOTAL BILIRUBIN [4]: 0.17 mg/dL
TOTAL PROTEIN [4]: 5.57 G/DL
URIC ACID [4]: 1.53 mg/dL
